Laboratory results as given in patent US20260297060A1, “COMPOUNDS FOR THE DEGRADATION OF MUTANT BRAF” (C4 THERAPEUTICS, INC., priority 2023, published 2026).
Where two headings read alike, the source gives them in different places.

Assays:
[1] = Example 8 pharmacokinetics assay for PKPD study (plasma, tumor, liver); assay type: in vivo, BALB/c nude mice; details: 10 mg/kg, p.o., single dose; for concentration at 6 h / concentration at 12 h / concentration at 1 h / concentration at 24 h: mouse, po
Method: For the PK and PD study, agents were administered to BALB/c nude mice bearing A375 human melanoma xenografts tumors. encorafenib, Compound 8, Compound 26, Compound 38, and Compound 39 were dosed p.o. once on day 1. Encorafenib was dosed at 35 mg/kg, Compound 8, Compound 26, Compound 38, and Compound 39 were dosed at 10 mg/kg. This study was non-GLP.
(§1) The plasma samples were collected at predetermined time points for PK analysis. For non-termination plasma collection, blood samples were collected into the 1.5 mL Eppendorf tubes containing 3 μL of 0.5 M EDTA-K2. For termination plasma collection, the mice were euthanized at predetermined time points post the treatment and the blood samples were collected into the 1.5 mL Eppendorf tubes containing 15 μL of 0.5 M EDTA-K2. And then the anticoagulant blood samples were centrifuged at 2,500 g at 4° C. for 15 minutes. The plasma samples were separated into 2 aliquots. The 1st was used for PK analysis, and the 2nd served as backup. The samples were stored at −80° C. before bioanalysis.
The tumor samples were collected at predetermined time points for PK and WB analysis. The tumor was dissected out and split into 3 parts. The 1st part was used for PK analysis, the 2nd part was used for WB analysis and the last one served as backup for study. The samples were transferred into pre-labeled tubes and quickly froze in liquid nitrogen within 2 minutes after dissection. The samples were stored at −80° C. before bioanalysis.
(§2) Liver samples were collected at predetermined time points for PK analysis. The left lobe of the liver was dissected out and split into 2 parts. The 1st part was used for PK analysis and the 2nd part served as the backup for the study. The samples were transferred into pre-labeled tubes and quickly froze in liquid nitrogen within 2 minutes after dissection. The samples were stored at −80° C. before bioanalysis.
The harvested plasma and liver samples were processed for pharmacokinetics analysis by LC-MS/MS with a concentration range of 0.200~200 ng/mL for encorafenib in plasma and liver homogenate, and 0.100-100 ng/ml in tumor homogenate, 1.00-1000 ng/mL for Compound 8 in plasma and 0.500~500 ng/ml in tumor and liver homogenate, 50.0~50,000 ng/mL for Compound 26 and Compound 38 in plasma, 5.0~5000 ng/ml in liver and 2.00~2000 ng/ml in tumor homogenate, 1.00-1000 ng/mL for Compound 39 in plasma and 0.500~500 ng/mL in liver and tumor homogenate.

[2] = Example 7 pharmacokinetics assay for efficacy study (plasma, liver); assay type: in vivo, BALB/c nude mice; details: mouse, po, 10 mg/kg, p.o.
Method: For efficacy study, agents were tested in the A375 human melanoma xenografts. Compound 118, Compound 156, and Compound 180 were administered to BALB/c nude mice bearing A375 xenografts from day 0 and dosed p.o. twice per day (BID). Compound 141 was administered from day 0 and dosed p.o. twice per day (BID) or dosed p.o. daily (QD) from day 1. Compound 141, Compound 118, Compound 156, and Compound 180 were dosed at 10 mg/kg for 14 days. The known BRAF inhibitor Dabrafenib was used as a positive control. Dabrafenib was administered from day 1 and dosed p.o. daily (QD) for 14 days and dosed at 100 mg/kg.
as §1, with “The” for “For non-termination plasma collection, blood samples were collected into the 1.5 mL Eppendorf tubes containing 3 μL of 0.5 M EDTA-K2. For termination plasma collection, the”, “treatment. The” for “treatment and the”
as §2
The harvested plasma and liver samples were processed for pharmacokinetics analysis by LC-MS/MS with a concentration range of 0.500~500 ng/mL for Dabrafenib in plasma and liver homogenate, 20.0~20,000 ng/mL for Compound 141, Compound 180 and Compound 118 in plasma and liver, 10.0~10,000 ng/mL for Compound 156 in plasma and liver.

[3] = liver, 6 h, read-out: Concentration in Liver (mean ± SEM)
[4] = liver, 12 h, read-out: Concentration in Liver (mean ± SEM)
[5] = plasma, 1 h, read-out: Concentration in Plasma (mean ± SEM)
[6] = plasma, 6 h, read-out: Concentration in Plasma (mean ± SEM)
[7] = plasma, 12 h, read-out: Concentration in Plasma (mean ± SEM)
[8] = plasma, 24 h, read-out: Concentration in Plasma (mean ± SEM)
[9] = tumor, 1 h, read-out: Concentration in Tumor (mean ± SEM)
[10] = tumor, 6 h, read-out: Concentration in Tumor (mean ± SEM)
[11] = tumor, 12 h, read-out: Concentration in Tumor (mean ± SEM)
[12] = tumor, 24 h, read-out: Concentration in Tumor (mean ± SEM)
[13] = liver, BID × 14 days, read-out: Concentration in Liver (mean ± SEM)
[14] = plasma, BID × 14 days, read-out: Concentration in Plasma (mean ± SEM)

Row | concentration at 6 h [1, 3] [ng/g] | concentration at 1 h [1, 5] [ng/mL] | concentration at 6 h [1, 6] [ng/mL] | concentration at 12 h [1, 7] [ng/mL] | concentration at 1 h [1, 9] [ng/g] | concentration at 6 h [1, 10] [ng/g] | concentration at 12 h [1, 11] [ng/g] | concentration at 6 h [2, 13] [ng/g] | concentration at 6 h [2, 14] [ng/mL] | SMILES | also measured
1 | 379 ± 79.8 | 2940 ± 149 | 339 ± 60.3 | 64.7 ± 16.8 | 394 ± 17.6 | 139 ± 21.7 | 39.1 ± 5.77 | – | – | CCN(C)S(=O)(=O)Nc1ccc(F)c(Oc2ccc3ncn(C4CC5(CCN(C6CCC(c7cc8c(cc7F)c(N7CCC(=O)NC7=O)nn8C)CC6)CC5)C4)c(=O)c3c2)c1C#N (single isomer, unassigned) [Compound 8, 6-[2-cyano-3-[[ethyl(methyl)sulfamoyl]amino]-6-fluoro-phenoxy]-3-[7-[4-[3-(2,4-dioxohexahydropyrimidin-1-yl)-5-fluoro-1-methyl-indazol-6-yl]cyclohexyl]-7-azaspiro[3.5]nonan-2-yl]-4-oxo-quinazoline] | concentration at 12 h [1, 4]: 74.8 ± 11.3 ng/g; concentration at 24 h [1, 8]: 1.27 ± 0.2 ng/mL; concentration at 24 h [1, 12]: 8.52 ng/g
2 | 25500 ± 3820 | 32000 ± 3960 | 16400 ± 1500 | 6810 ± 795 | 3320 ± 523 | 3830 ± 736 | 1990 ± 415 | – | – | CCN(C)S(=O)(=O)Nc1ccc(F)c(Oc2ccc3ncn([C@H]4COC5(CCC(N6CCC(c7cc8c(cc7F)c(N7CCC(=O)NC7=O)nn8C)C(F)(F)C6)CC5)C4)c(=O)c3c2)c1C#N (single isomer, unassigned) [Compound 38] | Concentration in Liver (mean ± SEM) ([1]; 12 h, 720 min): 11243 ± 2595 ng/g; Concentration in Plasma (mean ± SEM) ([1]; 24 h, 1440 min): 1797 ± 63.3 ng/mL; Concentration in Tumor (mean ± SEM) ([1]; 24 h, 1440 min): 369 ± 42.6 ng/g
3 | – | – | – | – | – | – | – | – | – | CCN(C)S(=O)(=O)Nc1ccc(F)c(Oc2ccc3ncn([C@H]4COC5(CCC(N6CCC(c7cc8c(cc7F)c(N7CCC(=O)NC7=O)nn8C)C(F)(F)C6)CC5)C4)c(=O)c3c2)c1C#N (single isomer, unassigned) [Compound 39] | Concentration in Plasma (mean ± SEM) ([1]; 1 h, 60 min): 34700 ± 3785 ng/mL; Concentration in Tumor (mean ± SEM) ([1]; 1 h, 60 min): 3423 ± 648 ng/g; Concentration in Liver (mean ± SEM) ([1]; 6 h, 360 min): 18200 ± 1735 ng/g; Concentration in Plasma (mean ± SEM) ([1]; 6 h, 360 min): 15700 ± 1358 ng/mL; Concentration in Tumor (mean ± SEM) ([1]; 6 h, 360 min): 4713 ± 256 ng/g; Concentration in Liver (mean ± SEM) ([1]; 12 h, 720 min): 5610 ± 455 ng/g; Concentration in Plasma (mean ± SEM) ([1]; 12 h, 720 min): 3973 ± 202 ng/mL; Concentration in Tumor (mean ± SEM) ([1]; 12 h, 720 min): 1510 ± 43.6 ng/g; Concentration in Plasma (mean ± SEM) ([1]; 24 h, 1440 min): 171 ± 20.8 ng/mL; Concentration in Tumor (mean ± SEM) ([1]; 24 h, 1440 min): 79.3 ± 25.3 ng/g
4 | – | – | – | – | – | – | – | 102000 ± 1600 | 4160 ± 503 | CCN(C)S(=O)(=O)Nc1ccc(F)c(Oc2ccc3ncc(OCC4CCN(C5CCC(c6cc7c(cc6F)c(N6CCC(=O)NC6=O)nn7C)CC5)CC4)nc3c2)c1C#N (single isomer, unassigned) [Compound 118, 7-[2-cyano-3-[[ethyl(methyl)sulfamoyl]amino]-6-fluoro-phenoxy]-2-[[1-[4-[3-(2,4-dioxohexahydropyrimidin-1-yl)-5-fluoro-1-methyl-indazol-6-yl]cyclohexyl]-4-piperidyl]methoxy]quinoxaline] | –
5 | – | – | – | – | – | – | – | 2400 ± 425 | 1920 ± 363 | CCN(C)S(=O)(=O)Nc1ccc(F)c(Oc2ccc3ncc(C4CC5(CCN(C6CCC(c7cc8c(cc7F)c(N7CCC(=O)NC7=O)nn8C)CC6)CC5)C4)nc3c2)c1C#N (single isomer, unassigned) [Compound 180, 7-[2-cyano-3-[[ethyl(methyl)sulfamoyl]amino]-6-fluoro-phenoxy]-2-[7-[4-[3-(2,4-dioxohexahydropyrimidin-1-yl)-5-fluoro-1-methyl-indazol-6-yl]cyclohexyl]-7-azaspiro[3.5]nonan-2-yl]quinoxaline] | –
6 | – | – | – | – | – | – | – | 1840 ± 305 | 1870 ± 359 | CCN(C)S(=O)(=O)Nc1ccc(F)c(Oc2ccc3ncn(C4CC5(CCN(C6CCN(c7cc8c(cc7F)c(N7CCC(=O)NC7=O)nn8C)CC6)CC5)C4)c(=O)c3c2)c1C#N [Compound 156, 6-[2-cyano-3-[[ethyl(methyl)sulfamoyl]amino]-6-fluoro-phenoxy]-3-[7-[1-[3-(2,4-dioxohexahydropyrimidin-1-yl)-5-fluoro-1-methyl-indazol-6-yl]-4-piperidyl]-7-azaspiro[3.5]nonan-2-yl]-4-oxo-quinazoline] | –

Row | SMILES | concentration at 6 h [1, 3] [ng/g] | concentration at 1 h [1, 5] [ng/mL] | concentration at 6 h [1, 6] [ng/mL] | concentration at 12 h [1, 7] [ng/mL] | concentration at 1 h [1, 9] [ng/g] | concentration at 6 h [1, 10] [ng/g] | concentration at 12 h [1, 11] [ng/g] | concentration at 6 h [2, 13] [ng/g] | concentration at 6 h [2, 14] [ng/mL] | also measured
7 | CCN(C)S(=O)(=O)Nc1ccc(F)c(Oc2ccc3ncn([C@H]4COC5(CCN(C6CC7(C6)CN(c6cc8c(cc6F)c(N6CCC(=O)NC6=O)nn8C)C7)CC5)C4)c(=O)c3c2)c1C#N [Compound 26, (3R)-3-[6-[2-cyano-3-[[ethyl(methyl)sulfamoyl]amino]-6-fluoro-phenoxy]-4-oxo-quinazolin-3-yl]-8-[2-[3-(2,4-dioxohexahydropyrimidin-1-yl)-5-fluoro-1-methyl-indazol-6-yl]-2-azaspiro[3.3]heptan-6-yl]-1-oxa-8-azaspiro[4.5]decane] | 11800 ± 551 | 29100 ± 733 | 20800 ± 2930 | 4600 ± 1140 | 1900 ± 320 | 3770 ± 478 | 1400 ± 226 | – | – | concentration at 12 h [1, 4]: 3250 ± 601 ng/g; concentration at 24 h [1, 8]: 162 ± 15.3 ng/mL; concentration at 24 h [1, 12]: 64.9 ± 19.9 ng/g
8 | CCN(C)S(=O)(=O)Nc1ccc(F)c(Oc2ccc3ncn(C4CC5(CCN(C6CC7(C6)CN(c6cc8c(cc6F)c(N6CCC(=O)NC6=O)nn8C)C7)CC5)C4)c(=O)c3c2)c1C#N (centres unmarked) [Compound 141, 6-[2-cyano-3-[[ethyl(methyl)sulfamoyl]amino]-6-fluoro-phenoxy]-3-[7-[2-[3-(2,4-dioxohexahydropyrimidin-1-yl)-5-fluoro-1-methyl-indazol-6-yl]-2-azaspiro[3.3]heptan-6-yl]-7-azaspiro[3.5]nonan-2-yl]-4-oxo-quinazoline] | – | – | – | – | – | – | – | 6570 ± 341 | 8750 ± 907 | concentration at 6 h ([2]; liver, QD × 14 days, read-out: Concentration in Liver (mean ± SEM)): 7500 ± 286 ng/g; concentration at 6 h ([2]; plasma, QD × 14 days, read-out: Concentration in Plasma (mean ± SEM)): 11000 ± 474 ng/mL
